Results on 19 molecules are retold here after patent US8492559B2, “Substituted indole compounds” (Gruenenthal GmbH, priority 2009, dated 2013).

One assay has as its target T1, B1R receptor of the rat (rB1R) (Rattus norvegicus, UniProt P97583).
T1 construct: expressed in transfected cells; host or cells: CHO K1 cells
T1 sequence (P97583 1-337): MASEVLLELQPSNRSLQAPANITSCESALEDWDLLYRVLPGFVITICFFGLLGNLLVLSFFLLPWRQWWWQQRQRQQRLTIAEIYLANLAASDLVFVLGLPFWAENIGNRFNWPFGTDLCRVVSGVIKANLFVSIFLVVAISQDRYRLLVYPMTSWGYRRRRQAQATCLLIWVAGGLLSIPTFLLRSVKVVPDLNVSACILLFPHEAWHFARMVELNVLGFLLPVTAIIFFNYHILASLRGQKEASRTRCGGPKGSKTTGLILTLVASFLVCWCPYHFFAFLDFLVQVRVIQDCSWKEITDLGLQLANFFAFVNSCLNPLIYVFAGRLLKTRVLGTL
As to the kind of experiment: Functional investigation on the bradykinin 1 receptor (B1R), FLIPR Ca2+ assay, rB1R cells. In kind it is cell-based. To be noted: 10 μM test substance; CHO K1 cells with rat B1R; agonist Des-Arg9 bradykinin; % of maximum achievable inhibition; 10 µM. In outline:
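Cells plated at 20,000-35,000/well, incubated overnight at 37° C, loaded with Fluo-4 (2.13 μM, 60 min, 37° C, or 2.5 μM in buffer A), then read in FLIPR (λex 488, λem 540 nm). Agonist: Lys-Des-[MUT] bradykinin (0.5 nM) or Des-[MUT] bradykinin (100 nM). IC50 from % inhibition versus maximum, n=2-3, N>=2.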
For the molecule `COc1cc(C)c(S(=O)(=O)Nc2ccc3ccn(CC(=O)N4CCC(CCN5CCCC5)CC4)c3c2)c(C)c1` [Compound G-01, 4-Methoxy-2,6-dimethyl-N-[1-[2-oxo-2-[4-(2-pyrrolidin-1-yl-ethyl)-piperidin-1-yl]-ethyl]-1H-indol-6-yl]-benzenesulfonic acid amide], the “B1R antagonism, rat [10 μM] % inhibition” value came to 78%.
With `O=C(CCn1ccc2cccc(N3Cc4cccc(Cl)c4C3=O)c21)N1CCC2(CC1)CCN(c1ccncc1)CC2` [Compound G-10, 7-Chloro-2-(1-(3-oxo-3-(9-(pyridin-4-yl)-3,9-diazaspiro[5.5]undecan-3-yl)propyl)-1H-indol-7-yl)isoindolin-1-one], the “B1R antagonism, rat [10 μM] % inhibition” value is given as 76%.

The assay is the same for the next values; noted with them: CHO-K1, 10 μM test substance; CHO K1 cells with rat B1R; agonist Des-Arg9 bradykinin; % of maximum achievable inhibition; read-out: B1R antagonism, rat [10 μM] % inhibition.
For the molecule `COc1cc(C)c(S(=O)(=O)Nc2cccc3ccn(CC(=O)N4CCC5(CCN(c6ccncc6)C5)C4)c23)c(C)c1` (stereo not shown) [Compound G-17, 4-Methoxy-2,6-dimethyl-N-(1-(2-oxo-2-(7-(pyridin-4-yl)-2,7-diazaspiro[4.4]nonan-2-yl)ethyl)-1H-indol-7-yl)benzenesulfonic acid amide], the inhibition at 10 µM came out at 95%.
Same read-out and setting: the same measure for `O=C(Cn1ccc2cccc(N3Cc4cccc(Cl)c4C3=O)c21)N1CCC2(CC1)CCN(c1ccncc1)CC2` [Compound G-11, 7-Chloro-2-(1-(2-oxo-2-(9-(pyridin-4-yl)-3,9-diazaspiro[5.5]undecan-3-yl)ethyl)-1H-indol-7-yl)isoindolin-1-one]: -21%.
Turning to `COc1cc(C)c(S(=O)(=O)Nc2cccc3ccn(CC(=O)N(C)CCCN4CCN(c5ccncc5)CC4)c23)c(C)c1` [G_CC-88, 2-[7-[[(4-Methoxy-2,6-dimethyl-phenyl)sulfonyl]amino]-1H-indol-1-yl]-N-methyl-N-[3-(4-pyridin-4-yl-piperazin-1-yl)-propyl]-acetamide], the inhibition at 10 µM turned out to be 101%.
On the same count and under the same terms, for `COc1cc(C)c(S(=O)(=O)Nc2cccc3ccn(CC(=O)N4CCC5(CC4)C(=O)NCN5c4ccccc4)c23)c(C)c1` [Compound G-04, 4-Methoxy-2,6-dimethyl-N-[1-[2-oxo-2-(1-oxo-4-phenyl-2,4,8-triazaspiro[4.5]decan-8-yl)-ethyl]-1H-indol-7-yl]-benzenesulfonic acid amide] the value was 62%; for `Cn1c2c(c3c(Cl)cccc31)C(=O)N(c1ccc3ccn(CC(=O)N4CCC5(CC4)CCN(c4ccncc4)CC5)c3c1)C2` [Compound G-23, 8-Chloro-4-methyl-2-[1-[2-oxo-2-(9-pyridin-4-yl-3,9-diazaspiro[5.5]undecan-3-yl)-ethyl]-1H-indol-6-yl]-3,4-dihydro-2H-pyrrolo[3,4-b]indol-1-one], 106%; for `COc1cc(C)c(S(=O)(=O)Nc2cccc3ccn(CC(=O)N4CCC5(CC4)CC(c4ccncc4)=NO5)c23)c(C)c1` [Compound G-13, 4-Methoxy-2,6-dimethyl-N-(1-(2-oxo-2-(3-(pyridin-4-yl)-1-oxa-2,8-diazaspiro[4.5]dec-2-en-8-yl)ethyl)-1H-indol-7-yl)benzenesulfonic acid amide], 96%.
Still for that read-out and setting: the same measure for `COc1cc(C)c(S(=O)(=O)Nc2cccc3ccn(CC(=O)N4CCC5(CC4)CCN(c4ccncc4)CC5)c23)c(C)c1` [G_CC-91, 4-Methoxy-2,6-dimethyl-N-[1-[2-oxo-2-(3-pyridin-4-yl-3,9-diazaspiro-[5.5]undecan-9-yl)-ethyl]-1H-indol-7-yl]-benzenesulfonic acid amide]: 100%; for `O=C(Cn1ccc2ccc(N3CCn4ccc(Cl)c4C3=O)cc21)N1CCC2(CC1)CCN(c1ccncc1)CC2` [Compound G-33, 8-Chloro-2-[1-[2-oxo-2-(9-pyridin-4-yl-3,9-diazaspiro[5.5]undecan-3-yl)-ethyl]-1H-indol-6-yl]-3,4-dihydro-2H-pyrrolo[1,2-a]pyrazin-1-one]: 46%.
Same read-out and setting: the same measure for `COc1cc(C)c(S(=O)(=O)Nc2cccc3ccn(CC(=O)N4CCC(N5CCc6cc(CN7CCCCC7)ccc6C5)C4)c23)c(C)c1` (stereo not shown) [Compound G-16, 4-Methoxy-2,6-dimethyl-N-(1-(2-oxo-2-(3-(6-(piperidin-1-ylmethyl)-3,4-dihydroisoquinolin-2(1H)-yl)pyrrolidin-1-yl)ethyl)-1H-indol-7-yl)benzenesulfonic acid amide]: 96%; for `COc1cc(C)c(S(=O)(=O)Nc2cccc3ccn(CCC(=O)NCCC4CCN(c5ccncc5)CC4)c23)c(C)c1` [G_CC-47, 3-[7-[[(4-Methoxy-2,6-dimethyl-phenyl)sulfonyl]amino]-1H-indol-1-yl]-N-[2-(1-pyridin-4-yl-piperidin-4-yl)-ethyl]-propionamide]: 102%.
On to `COc1cc(C)c(S(=O)(=O)Nc2cccc3ccn(CC(=O)N4CCC(CCN5CCCC5)CC4)c23)c(C)c1` [Compound G-02, 4-Methoxy-2,6-dimethyl-N-[1-[2-oxo-2-[4-(2-pyrrolidin-1-yl-ethyl)-piperidin-1-yl]-ethyl]-1H-indol-7-yl]-benzenesulfonic acid amide], for which the inhibition at 10 µM was determined as 100%.
Still for that read-out and setting: for `COc1cc(C)c(S(=O)(=O)Nc2cccc3ccn(CCC(=O)N4CCN(CC5CCN(C)CC5)CC4)c23)c(C)c1` [G_CC-43, 4-Methoxy-2,6-dimethyl-N-[1-[3-[4-[(1-methyl-piperidin-4-yl)-methyl]-piperazin-1-yl]-3-oxo-propyl]-1H-indol-7-yl]-benzenesulfonic acid amide] the value was 103%; for `O=C(Cn1ccc2ccc(N3Cc4cccc(Cl)c4C3=O)cc21)N1CCC2(CCC(N3CCC3)CC2)CC1` [Compound G-21, 2-(1-(2-(9-(Azetidin-1-yl)-3-azaspiro[5.5]undecan-3-yl)-2-oxoethyl)-1H-indol-6-yl)-7-chloroisoindolin-1-one], 43%; for `COc1cc(C)c(S(=O)(=O)Nc2cccc3ccn(CC(=O)N4CCC5(CC4)CCN(Cc4ccccc4)C5=O)c23)c(C)c1` [G_CC-32, N-[1-[2-(3-Benzyl-4-oxo-3,8-diazaspiro[4.5]decan-8-yl)-2-oxo-ethyl]-1H-indol-7-yl]-4-methoxy-2,6-dimethyl-benzenesulfonic acid amide], 101%.
As for `COc1cc(C)c(S(=O)(=O)NCc2cccc3ccn(CC(=O)N4CCC5(CC4)CCN(c4ccncc4)CC5)c23)c(C)c1` [Compound G-24, 4-Methoxy-2,6-dimethyl-N-[[1-[2-oxo-2-(9-pyridin-4-yl-3,9-diazaspiro[5.5]undecan-3-yl)-ethyl]-1H-indol-7-yl]-methyl]-benzenesulfonic acid amide], the inhibition at 10 µM was 103%.
Still for that read-out and setting: for `O=C(Cn1ccc2ccc(N3Cc4cccc(Cl)c4C3=O)cc21)N1CCC2(CCC(Oc3ccncc3)CC2)CC1` [Compound G-19, 7-Chloro-2-(1-(2-oxo-2-(9-(pyridin-4-yloxy)-3-azaspiro[5.5]undecan-3-yl)ethyl)-1H-indol-6-yl)isoindolin-1-one] the value was 94%; for `COc1cc(C)c(S(=O)(=O)Nc2cccc3ccn(CC(=O)N4CCC5(CCC(Oc6ccncc6)CC5)CC4)c23)c(C)c1` [Compound G-22, 4-Methoxy-2,6-dimethyl-N-(1-(2-oxo-2-(9-(pyridin-4-yloxy)-3-azaspiro[5.5]undecan-3-yl)ethyl)-1H-indol-7-yl)benzenesulfonic acid amide], 99%.

By inhibition is commonly meant the change of the read-out against control, counted positive when it falls.
